This note sets out measurements from US8067439B2, “Biphenyl compounds useful as muscarinic receptor antagonists” (Theravance, Inc., priority 2004, dated 2011).

The structures appear in SMILES notation.

This assay has as its target T1, M3 muscarinic receptor subtype (hM3) (Homo sapiens, UniProt P20309).
T1 construct: expressed in transfected cells
As to the kind of experiment: Radioligand binding assay ([3H]-NMS displacement, CHO cell membranes). The settings on record: [3H]-NMS 1 nM. The protocol:
CHO cell lines stably expressing cloned human hM1, hM2, hM3 and hM4 muscarinic receptor subtypes, respectively, were grown to near confluency in medium consisting of HAM's F-12 supplemented with 10% FBS and 250 μg/mL Geneticin. The cells were grown in a 5% CO2, 37° C. incubator and lifted with 2 mM EDTA in dPBS. Cells were collected by 5 minute centrifugation at 650×g, and cell pellets were either stored frozen at −80° C. or membranes were prepared immediately. For membrane preparation, cell pellets were resuspended in lysis buffer and homogenized with a Polytron PT-2100 tissue disrupter (Kinematica AG; 20 seconds×2 bursts). Crude membranes were centrifuged at 40,000×g for 15 minutes at 4° C. […] The protein concentration of the membrane suspension was determined by the method described in Lowry, O. et al., Journal of Biochemistry 193:265 (1951). […]
Radioligand binding assays were performed in 96-well microtiter plates in a total assay volume of 100 μL. […] Filter plates were rinsed three times with wash buffer (10 mM HEPES) to remove unbound radioactivity. […] The plates were then counted in a PerkinElmer Topcount liquid scintillation counter (PerkinElmer Inc., Wellesley, Mass.). Binding data were analyzed by nonlinear regression analysis with the GraphPad Prism Software package (GraphPad Software, Inc., San Diego, Calif.) using the one-site competition model. […]

T1 sequence (P20309 whole entry): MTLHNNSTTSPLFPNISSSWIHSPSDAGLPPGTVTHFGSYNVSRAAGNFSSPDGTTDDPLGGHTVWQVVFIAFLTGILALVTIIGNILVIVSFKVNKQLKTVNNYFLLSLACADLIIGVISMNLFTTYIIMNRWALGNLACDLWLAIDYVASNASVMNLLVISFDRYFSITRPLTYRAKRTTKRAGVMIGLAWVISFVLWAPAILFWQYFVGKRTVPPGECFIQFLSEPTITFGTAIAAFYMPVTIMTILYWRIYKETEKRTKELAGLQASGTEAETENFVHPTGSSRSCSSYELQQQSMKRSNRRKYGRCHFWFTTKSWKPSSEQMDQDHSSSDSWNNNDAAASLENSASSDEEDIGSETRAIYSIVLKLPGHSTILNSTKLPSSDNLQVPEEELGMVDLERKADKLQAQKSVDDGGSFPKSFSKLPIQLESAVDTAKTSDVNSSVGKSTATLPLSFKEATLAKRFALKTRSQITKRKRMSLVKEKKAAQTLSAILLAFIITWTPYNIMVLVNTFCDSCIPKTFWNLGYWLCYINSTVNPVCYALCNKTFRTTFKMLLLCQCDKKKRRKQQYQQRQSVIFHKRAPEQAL

As to `CN(CCN1CCC(OC(=O)Nc2ccccc2-c2ccccc2)CC1)C(=O)CCCCCN1CCC(C(N)=O)CC1` [Example 1, Biphenyl-2-ylcarbamic Acid 1-(2-{[6-(4-Carbamoylpiperidin-1-yl)hexanoyl]methylamino}ethyl)piperidin-4-yl Ester], the Ki – broadly, the equilibrium dissociation constant of an inhibitor or competing ligand from its target – was less than 5 nM.
